Measured values taken from patent US8975298B2, “Therapeutic agent for pain” (ONO Pharmaceutical Co., Ltd., priority 2005, dated 2015).
“And” between values parts separate entries of the source, which are not always exact repeats. Identical values can stand only once.

Tests used:
[1] = system: dogs; details: dog, in vivo, iv, 100 mg/kg
Description: Since the toxicity of (2R)-2-propyloctanoic acid, a salt thereof or a prodrug thereof is extremely low, it can be considered to be sufficiently safe for medicinal uses.

[2] = system: spinal nerve ligation model rats; assay: Escape threshold of contact stimulus, von Frey filaments (contact allodynia) in rat spinal nerve ligation model; format: in vivo
Protocol: (§1) Male rats were used in the experiment. Spinal nerve ligation models were made in accordance with the method of Kim & Chung (Kim, S. H. & Chung, J. M., An experimental model for peripheral neuropathy produced by segmental spinal nerve ligation in the rat, Pain, 50, 355-363, 1992). Namely, the fifth lumber nerve in one side was strongly ligated with silken threads.
(§2) More specifically, the models were made in the following manner.
(§3) After intraperitoneally administering 40 mg/kg (liquid volume 0.8 ml/kg) of pentobarbital (Nenbutal Injection (trade name), Dainippon Pharmaceutical Co., Ltd.), a rat was fixed in the dorsal position under anesthesia and the abdomen was incised in the median line with scissors. The intestines and the like were pushed aside with sterilized gauze and the abdominal aorta and the abdominal vein were confirmed. Then, the muscle located immediately below the iliolumbar vein was cleaved with tweezers. After confirming the fourth lumber nerve and the fifth lumber nerve in the muscle, the fifth lumber nerve (L5) was ligated with 6-0 silken threads. Subsequently, the intestines having been pushed away were returned to the original positions. 5 ml of physiological saline (otsuka Pharmaceutical Factory, Inc.) containing ampicillin sodium (Viccillin for Injection (trade name), Meiji Seika Kaisha, Ltd.) (ampicillin concentration: 20 mg/ml) was poured into the peritoneal cavity, and the abdominal muscles and skin were sutured with a nylon thread.
From immediately after the spinal nerve ligation, 30 mg/kg of (2R)-2-propyloctanoic acid was orally administered once a day for 14 days (14 times in total). Also, vehicle control was administered in the same manner.
(3-2) Measurement of Escape Threshold of Contact Stimulus (Evaluation of Contact Allodynia)
On the next day of the final administration, the escape threshold of a contact stimulus was measured. Namely, filaments (von Frey filaments: VFF) were pressed against right and left footpads from the lower side. Then, the VFF indication at the occurrence of an escape response was recorded and converted into weight (g).

[3] = system: spinal nerve ligation model rats; assay: Latent time of pain response to heat stimulus (heat hyperalgesia) in rat spinal nerve ligation model; format: in vivo
Protocol: as §1, §2, §3
From immediately after the spinal nerve ligation, 30 mg/kg of (2R)-2-propyloctanoic acid was orally administered once a day for 14 days (14 times in total). Also, vehicle control was administered in the same manner. […]
On the next day of the final administration, the latent time of heat stimulus was measured. Namely, right and left footpads were irradiated with infrared light of a halogen lamp from the lower side, and the time until the occurrence of an escape response (the latent time of pain reaction: sec) was measured.

[4] = 30 mg/kg orally once a day for 14 days from immediately after L5 ligation, measured next day after final administration, injured (operated-on) side
[5] = 30 mg/kg orally once a day for 14 days from immediately after L5 ligation, measured next day after final administration, normal (opposite) side
[6] = 30 mg/kg orally, 14 days, injured side vs vehicle control, p<0.01 Welch test

CCCCCC[C@@H](CCC)C(=O)O [(2R)-2-propyloctanoic acid]
Fatal cases [1]: no fatal case was observed
Escape threshold of contact stimulus (g) Injured side [2, 4]: 14.7 g and 14.7 ± 12.7 g
Escape threshold of contact stimulus (g) Normal side [2, 5]: 66.1 g and 66.1 ± 29.8 g
Analgesic effect on contact allodynia [2, 6]: an analgesic effect on contact allodynia was confirmed
Latent time of pain response (sec) Injured side [3, 4]: 13.61 s and 13.61 ± 6.76 s
Latent time of pain response (sec) Normal side [3, 5]: 19.00 s and 19.00 ± 5.58 s
Analgesic effect on heat hyperalgesia [3, 6]: an analgesic effect on heat hyperalgesia was confirmed
